Reference: ChEMBL document CHEMBL2440076, “New triarylpyrazoles as broad-spectrum anticancer agents: design, synthesis, and biological evaluation” (Eur J Med Chem, 2013)

Key:
Format in all cases: functional
[1] = tested on: MDA-MB-468; assay: Growth inhibition of human MDA-MB-468 cells assessed as cell growth at 3X10'-5 M after 48 hrs by sulforhodamine B assay; settings: MDA-MB-468, 48 h, read-out: Activity
[2] = tested on: A498; assay: Growth inhibition of human A498 cells assessed as cell growth at 3X10'-5 M after 48 hrs by sulforhodamine B assay; settings: A498, 48 h, read-out: Activity
[3] = tested on: SK-MEL-5; assay: Growth inhibition of human SK-MEL-5 cells assessed as cell growth at 3X10'-7 M after 48 hrs by sulforhodamine B assay; settings: SK-MEL-5, 48 h, read-out: Activity
[4] = tested on: T47D; assay: Growth inhibition of human T47D cells assessed as cell growth at 3X10'-9 M after 48 hrs by sulforhodamine B assay; settings: read-out: Activity
[5] = tested on: RXF 393; assay: Growth inhibition of human RXF393 cells assessed as cell growth at 3X10'-5 M after 48 hrs by sulforhodamine B assay; settings: RXF 393, 48 h, read-out: Activity
[6] = tested on: TK-10; assay: Growth inhibition of human TK10 cells assessed as cell growth at 3X10'-5 M after 48 hrs by sulforhodamine B assay; settings: TK-10, 48 h, read-out: Activity
[7] = tested on: 786-0; assay: Growth inhibition of human 786-0 cells assessed as cell growth at 3X10'-9 M after 48 hrs by sulforhodamine B assay; settings: 786-0, 48 h, read-out: Activity
[8] = tested on: DU-145; assay: Growth inhibition of human DU145 cells assessed as cell growth at 3X10'-9 M after 48 hrs by sulforhodamine B assay; settings: DU-145, 48 h, read-out: Activity
[9] = tested on: A498; assay: Growth inhibition of human A498 cells assessed as cell growth at 3X10'-8 M after 48 hrs by sulforhodamine B assay; settings: A498, 48 h, read-out: Activity
[10] = tested on: K562; assay: Growth inhibition of human K562 cells assessed as cell growth at 3X10'-9 M after 48 hrs by sulforhodamine B assay; settings: K562, 48 h, read-out: Activity
[11] = tested on: 786-0; assay: Growth inhibition of human 786-0 cells assessed as cell growth at 3X10'-7 M after 48 hrs by sulforhodamine B assay; settings: 786-0, 48 h, read-out: Activity
[12] = tested on: SW-620; assay: Growth inhibition of human SW620 cells assessed as cell growth at 3X10'-7 M after 48 hrs by sulforhodamine B assay; settings: SW-620, 48 h, read-out: Activity
[13] = tested on: SF-539; assay: Growth inhibition of human SF539 cells assessed as cell growth at 3X10'-7 M after 48 hrs by sulforhodamine B assay; settings: SF-539, 48 h, read-out: Activity
[14] = tested on: Malme-3M; assay: Growth inhibition of human MALME-3M cells assessed as cell growth at 3X10'-8 M after 48 hrs by sulforhodamine B assay; settings: read-out: Activity
[15] = Growth inhibition of human HCC2998 cells assessed as cell growth at 3X10'-7 M after 48 hrs by sulforhodamine B assay; settings: HCC 2998, 48 h, read-out: Activity
[16] = tested on: IGROV-1; assay: Growth inhibition of human IGROV1 cells assessed as cell growth at 3X10'-5 M after 48 hrs by sulforhodamine B assay; settings: IGROV-1, 48 h, read-out: Activity
[17] = tested on: ACHN; assay: Growth inhibition of human ACHN cells assessed as cell growth at 3X10'-5 M after 48 hrs by sulforhodamine B assay; settings: read-out: Activity
[18] = tested on: HCT-116; assay: Growth inhibition of human HCT116 cells assessed as cell growth at 3X10'-6 M after 48 hrs by sulforhodamine B assay; settings: HCT-116, 48 h, read-out: Activity
[19] = tested on: SK-OV-3; assay: Growth inhibition of human SKOV3 cells assessed as cell growth at 3X10'-7 M after 48 hrs by sulforhodamine B assay; settings: SK-OV-3, 48 h, read-out: Activity
[20] = tested on: NCI-H522; assay: Growth inhibition of human NCI-H522 cells assessed as cell growth at 3X10'-7 M after 48 hrs by sulforhodamine B assay; settings: NCI-H522, 48 h, read-out: Activity
[21] = tested on: NCI-H322M; assay: Growth inhibition of human NCI-H322M cells assessed as cell growth at 3X10'-5 M after 48 hrs by sulforhodamine B assay; settings: read-out: Activity
[22] = tested on: NCI-H460; assay: Growth inhibition of human NCI-H460 cells assessed as cell growth at 3X10'-6 M after 48 hrs by sulforhodamine B assay; settings: NCI-H460, 48 h, read-out: Activity
[23] = tested on: MDA-MB-231; assay: Growth inhibition of human MDA-MB-231 cells assessed as cell growth at 3X10'-5 M after 48 hrs by sulforhodamine B assay; settings: MDA-MB-231, 48 h, read-out: Activity
[24] = tested on: NCI-H522; assay: Growth inhibition of human NCI-H522 cells assessed as cell growth at 3X10'-8 M after 48 hrs by sulforhodamine B assay; settings: NCI-H522, 48 h, read-out: Activity
[25] = tested on: HOP-92; assay: Growth inhibition of human HOP92 cells assessed as cell growth at 3X10'-8 M after 48 hrs by sulforhodamine B assay; settings: HOP-92, 48 h, read-out: Activity
[26] = tested on: COLO 205; assay: Growth inhibition of human COLO205 cells assessed as cell growth at 3X10'-5 M after 48 hrs by sulforhodamine B assay; settings: COLO 205, 48 h, read-out: Activity
[27] = tested on: NCI-H522; assay: Growth inhibition of human NCI-H522 cells assessed as cell growth at 3X10'-5 M after 48 hrs by sulforhodamine B assay; settings: NCI-H522, 48 h, read-out: Activity
[28] = tested on: TK-10; assay: Growth inhibition of human TK10 cells assessed as cell growth at 3X10'-7 M after 48 hrs by sulforhodamine B assay; settings: TK-10, 48 h, read-out: Activity
[29] = tested on: SNB-75; assay: Growth inhibition of human SNB75 cells assessed as cell growth at 3X10'-9 M after 48 hrs by sulforhodamine B assay; settings: SNB-75, 48 h, read-out: Activity
[30] = tested on: SR; assay: Growth inhibition of human SR cells assessed as cell growth at 3X10'-5 M after 48 hrs by sulforhodamine B assay; settings: read-out: Activity
[31] = tested on: CCRF-CEM; assay: Growth inhibition of human CCRF-CEM cells assessed as cell growth at 3X10'-8 M after 48 hrs by sulforhodamine B assay; settings: read-out: Activity
[32] = tested on: HOP-62; assay: Growth inhibition of human HOP62 cells assessed as cell growth at 3X10'-5 M after 48 hrs by sulforhodamine B assay; settings: HOP-62, 48 h, read-out: Activity
[33] = tested on: MDA-MB-435; assay: Growth inhibition of human MDA-MB-435 cells assessed as cell growth at 3X10'-7 M after 48 hrs by sulforhodamine B assay; settings: MDA-MB-435, 48 h, read-out: Activity
[34] = Growth inhibition of human Hs 578T cells assessed as cell growth at 3X10'-8 M after 48 hrs by sulforhodamine B assay; settings: read-out: Activity

**Q.** For `COc1cc(-c2nn(-c3cccc(NC(=O)c4ccc(Cl)c(C(F)(F)F)c4)c3)cc2-c2ccncc2)ccc1Cl`, which growth at 30 µM [1] is on record?
**A.** 9%

**Q.** And the growth at 30 µM [2]?
**A.** -9%

**Q.** And the growth at 0.3 µM [3]?
**A.** 93%

**Q.** And the growth at 0.003 µM [4]?
**A.** 95%

**Q.** What about the growth at 30 µM [5] of the same compound?
**A.** -11%

**Q.** And the growth at 30 µM [6]?
**A.** 44%

**Q.** And the growth at 0.003 µM [7]?
**A.** 94%

**Q.** What about the growth at 0.003 µM [8] of the same compound?
**A.** 100%

**Q.** And the growth at 0.03 µM [9]?
**A.** 89%

**Q.** And the growth at 0.003 µM [10]?
**A.** 99%

**Q.** And the growth at 0.3 µM [11]?
**A.** 99%

**Q.** And the growth at 0.3 µM [12]?
**A.** 91%

**Q.** And the growth at 0.3 µM [13]?
**A.** 91%

**Q.** What about the growth at 0.03 µM [14] of the same compound?
**A.** 78%

**Q.** What about the growth at 0.3 µM [15] of the same compound?
**A.** 101%

**Q.** And the growth at 30 µM [16]?
**A.** 8%

**Q.** What about the growth at 30 µM [17] of the same compound?
**A.** 32%

**Q.** What about the growth at 3 µM [18] of the same compound?
**A.** 44%

**Q.** And the growth at 0.3 µM [19]?
**A.** 103%

**Q.** What about the growth at 0.3 µM [20] of the same compound?
**A.** 89%

**Q.** What about the growth at 30 µM [21] of the same compound?
**A.** 34%

**Q.** What about the growth at 3 µM [22] of the same compound?
**A.** 51%

**Q.** What about the growth at 30 µM [23] of the same compound?
**A.** 3%

**Q.** And the growth at 0.03 µM [24]?
**A.** 94%

**Q.** What about the growth at 0.03 µM [25] of the same compound?
**A.** 85%

**Q.** And the growth at 30 µM [26]?
**A.** -13%

**Q.** And the growth at 30 µM [27]?
**A.** -7%

**Q.** And the growth at 0.3 µM [28]?
**A.** 108%

**Q.** What about the growth at 0.003 µM [29] of the same compound?
**A.** 86%

**Q.** And the growth at 30 µM [30]?
**A.** 4%

**Q.** What about the growth at 0.03 µM [31] of the same compound?
**A.** 102%

**Q.** And the growth at 30 µM [32]?
**A.** 35%

**Q.** What about the growth at 0.3 µM [33] of the same compound?
**A.** 87%

**Q.** What about the growth at 0.03 µM [34] of the same compound?
**A.** 91%
